Experimental data from patent publication US20210186943A1, “OTIC FORMULATIONS FOR DRUG-INDUCED OTOTOXICITY” (OTONOMY, INC., priority 2018, published 2021).
Like-named read-outs stand apart in the source and are kept apart here.

How the values were obtained:
outer hair cells (OHCs) = test: Protection of outer hair cells from cisplatin-induced degeneration in cochlear explant model (Example B10); format: cell-based; conditions: 1.5 hour pretreatment followed by co-treatment with 10 μM cisplatin
Description: (§1) Protective effects of various otoprotectant molecules on cisplatin-induced degeneration of hair cells and spiral ganglion neurons were measured. FIGS. 19 and 20 show the quantified percent protection (normalized to naïve) graphs for outer hair cells (OHCs) and spiral ganglion neurons (SGNs).

[1] = tested on: spiral ganglion neurons (SGNs); test: Protection of spiral ganglion neurons from cisplatin-induced degeneration in cochlear explant model (Example B10); format: cell-based; conditions: 1.5 hour pretreatment followed by co-treatment with 10 μM cisplatin
Description: as §1

cochlear hair cells [2] = tested on: cochlear hair cells
Description: (§2) P2-P4 Sprague Dawley rat pups were used for all experiments.
(§3) Day 0: Dissected whole cochleae were mounted onto Cell-Tak-coated mesh inserts and incubated overnight in growth medium.
(§4) Day 3-4: Cochlea were fixed in 4% PFA overnight then immunohistochemically processed with the following: anti-MyoVIIa (1:500), anti-Neurofilament (1:500), Phalloidin (1:250), and DAPI (1:1000).
(§5) Z-stacks of the entire cochlea were imaged at 20x and stitched together using Zeiss Zen Black software. […] Healthy HCs and SGN fibers were counted within each box using Zeiss Zen Blue software. Error bars represent ±s.e.m. unless otherwise indicated.

cochlear hair cells [3] = test: Effect of solvents on cisplatin-induced hair cell toxicity in cochlear explants; format: cell-based, Sprague Dawley rat; conditions: for Affect Cisplatin Toxicity: cisplatin exposed explants; for effect on cisplatin-induced hair cell toxicity: summary of Table M
Description: as §2, §3, §4, §5

dissociated strial cells = test: Caspase-Glo 3/7 caspase activation in dissociated strial cultures (Example B7); format: cell-based, Sprague Dawley rat; conditions: 0.5% DMSO vs 0% DMSO
Description: Post cochlear dissection, Reissner's membrane and the lateral wall were gently separated from the basilar membrane with fine forceps. The stria vascularis was then pulled off the lateral wall and collected separately. Cells were then dissociated using a pipette post-trypsinization and seeded onto Poly-d-lysine-coated 96-well plates. Cells were grown for 48-72 hours to achieve 80-90% confluency before treatment. […] Following treatment, cells were exposed to the Caspase-Glo 3/7 (Promega) reagent for 30 minutes then […] was read on a plate reader.
The dissociated strial cells were mostly comprised of marginal cells by 24 hours in vitro.

guinea pigs = test: Acute cisplatin-induced hearing loss (CIHL) model, ABR threshold shift; format: in vivo, guinea pig; conditions: single IT SP-600125 (20 mg/ml) in P407 24 hours prior to cisplatin IP 12 mg/kg; 7 days post-treatment; 4, 8, 16 kHz; vs IT P407 vehicle
Description: SP-600125 (20 mg/ml) in P407: 205.4 g of DI water were weighed. 1.1342 g of sodium chloride (Fisher Scientific) and 1.53 g of tromethamine (Fisher Scientific) were added. Solid materials were dissolved and the pH of the solution was adjusted to 7.8 with approximately 1.9 mL of 5 N HCl. 126.2 g of buffer was weighed and chilled down and 24.5 g of Poloxamer 407 (Lutrol F127, BASF) were added (e.g., sprinkled) while mixing to dissolve. The approximately 16% poloxamer solution was sterile filtered with a 0.22 μm PVDF 33 mm syringe filter. 207 mg of milled SP600125 (LC laboratories) was added, followed by […] of sterile filtered 16% Poloxamer 407 solution. The solution was then transferred to 3 mL autoclaved vials.
Female albino guinea pigs […] (n=6 per group) of approximately 6-8 weeks of age served as subjects for the experiments. […]
Auditory Brainstem Response (ABR) assessment—During the procedure, additional anesthetic was administered if needed to maintain the depth of anesthesia sufficient to insure immobilization and relaxation. ABRs were recorded in an electrically and acoustically shielded chamber, one ear at a time. […] Acoustic calibration was performed with TDT software (SigCal) and thresholds were expressed as dB SPL in conditions identical to that of threshold recordings in animals. […]
ABR thresholds were determined 7 days post-treatment at 3 frequencies (4, 8, and 16 kHz).

cochlear hair cells [4] = test: Cisplatin-induced hair cell damage in ex vivo cochlear explants; format: cell-based, Sprague Dawley rat; parameters: dose or concentration left out as unconfirmed; conditions: various cisplatin concentrations, 48 or 72 hours
Excerpt: (§6) Error bars represent ±s.e.m. unless otherwise indicated.

[5] = tested on: spiral ganglion neurons (SGNs); test: Cisplatin-induced spiral ganglion neuron damage in ex vivo cochlear explants; format: cell-based, Sprague Dawley rat; parameters: SGN fiber density (SGNs per 200 μm): dose or concentration left out as unconfirmed
Excerpt: as §6

strial cells = test: Caspase 3/7 activation in dissociated strial cultures with cisplatin and antioxidants (Example B8); format: cell-based, Sprague-Dawley rat; conditions: cisplatin alone
Excerpt: Neonatal (P2-P4) Sprague-Dawley rats were used for the experiments described here. Animals were euthanized following anesthesia using isoflurane. Rat cochleae were then dissected in cold HBSS medium enriched with glucose.
Following cochlear dissection, Reissner's membrane and the lateral wall were separated and the stria vascularis was then removed from the lateral wall. Strial cells were then dissociated, seeded onto Poly-d-lysine coated 96 well plates and grown to achieve 80-90% confluency before treatment. […] After incubation, cells were lysed using the Promega caspase 3/7 Glo kit and the intensity of caspase 3/7 were read using Perkin-Elmer Enspire plate reader.
At this stage, cells also began to show formation of vessels (Laminin staining).

Nc1nc2nc[nH]c2c(=S)[nH]1 [6-thioguanine]
percent protection (normalized to naïve) of outer hair cells (outer hair cells (OHCs)): almost complete protection
percent protection (normalized to naïve) of spiral ganglion neurons [1]: complete protection

CC(C)=O [Acetone]
HC Toxicity (cochlear hair cells [2]; solvent concentration 1%, cochlear explants): No
HC Toxicity (cochlear hair cells [2]; solvent concentration 2%, cochlear explants): No
toxicity on naive cochlear explants (cochlear hair cells [2]; summary of Table M, all tested concentrations): no evident toxicity
Affect Cisplatin Toxicity (cochlear hair cells [3]; solvent concentration 1%): No
Affect Cisplatin Toxicity (cochlear hair cells [3]; solvent concentration 2%): No

CC#N [Acetonitrile]
HC Toxicity (cochlear hair cells [2]; solvent concentration 3%, cochlear explants): Slight
Affect Cisplatin Toxicity (cochlear hair cells [3]; solvent concentration 3%): No

O=C(OCc1ccccc1)c1ccccc1 [Benzyl benzoate]
HC Toxicity (cochlear hair cells [2]): No
toxicity on naive cochlear explants (cochlear hair cells [2]): no evident toxicity
Affect Cisplatin Toxicity (cochlear hair cells [3]; solvent concentration 0.5%): No
Affect Cisplatin Toxicity (cochlear hair cells [3]; solvent concentration 1%): No

C[S+](C)[O-] [DMSO, dimethyl sulfoxide]
HC Toxicity (cochlear hair cells [2]): No
toxicity on naive cochlear explants (cochlear hair cells [2]): no evident toxicity
Affect Cisplatin Toxicity (cochlear hair cells [3]; solvent concentration 0.1%): Yes-Protection
Affect Cisplatin Toxicity (cochlear hair cells [3]; solvent concentration 0.5%): Yes-Protection
Affect Cisplatin Toxicity (cochlear hair cells [3]; solvent concentration 1%): Yes-Protection
effect on cisplatin-induced hair cell toxicity (cochlear hair cells [3]): reduced cisplatin-induced hair cell toxicity
effect on cisplatin-induced caspase activation (relative light units) (dissociated strial cells): reduced cisplatin-induced caspase activation

CCO [Ethanol]
HC Toxicity (cochlear hair cells [2]): No
toxicity on naive cochlear explants (cochlear hair cells [2]): no evident toxicity
Affect Cisplatin Toxicity (cochlear hair cells [3]; solvent concentration 1%): No
Affect Cisplatin Toxicity (cochlear hair cells [3]; solvent concentration 2%): No
Affect Cisplatin Toxicity (cochlear hair cells [3]; solvent concentration 2.5%): No

CN1CCCC1=O [N-Methyl-2-pyrrolidone]
HC Toxicity (cochlear hair cells [2]): Yes

O=C1c2ccccc2-c2n[nH]c3cccc1c23 [SP-600125, anthra[1,9-cd]pyrazol-6(2H)-one]
ABR threshold shift (guinea pigs): dramatically reduced the ABR threshold shift

N.N.[Cl][Pt][Cl] [cisplatin]
IHCs per 200 μm (cochlear hair cells [4]): decreased in a dose- and exposure time-dependent manner
OHCs per 200 μm (cochlear hair cells [4]): decreased in a dose- and exposure time-dependent manner
difference from base to apex in SGN susceptibility to cisplatin ([5]; base, mid, apex regions): No significant difference
SGN fiber density (SGNs per 200 μm) ([5]; varying concentrations of cisplatin, 48 or 72 hours): decreases in a dose dependent manner
caspase 3/7 activation (RLU) (strial cells): increased caspase 3/7 activation

PEG400
Affect Cisplatin Toxicity (cochlear hair cells [3]; solvent concentration 2%): Yes-Protection
effect on cisplatin-induced hair cell toxicity (cochlear hair cells [3]): reduced cisplatin-induced hair cell toxicity
